Our source for the IC50 values is patent US20210198277A1, “AMINE-SUBSTITUTED ARYL OR HETEROARYL COMPOUNDS” (Epizyme, Inc., priority 2016, published 2021).

A value given as a limit tells only on which side of the number the result lay.

The target of the assay is T1, EHMT2 (Homo sapiens, UniProt Q96KQ7).
T1 construct: host or cells: MDA-MB-231
T1 sequence (Q96KQ7 1-1210): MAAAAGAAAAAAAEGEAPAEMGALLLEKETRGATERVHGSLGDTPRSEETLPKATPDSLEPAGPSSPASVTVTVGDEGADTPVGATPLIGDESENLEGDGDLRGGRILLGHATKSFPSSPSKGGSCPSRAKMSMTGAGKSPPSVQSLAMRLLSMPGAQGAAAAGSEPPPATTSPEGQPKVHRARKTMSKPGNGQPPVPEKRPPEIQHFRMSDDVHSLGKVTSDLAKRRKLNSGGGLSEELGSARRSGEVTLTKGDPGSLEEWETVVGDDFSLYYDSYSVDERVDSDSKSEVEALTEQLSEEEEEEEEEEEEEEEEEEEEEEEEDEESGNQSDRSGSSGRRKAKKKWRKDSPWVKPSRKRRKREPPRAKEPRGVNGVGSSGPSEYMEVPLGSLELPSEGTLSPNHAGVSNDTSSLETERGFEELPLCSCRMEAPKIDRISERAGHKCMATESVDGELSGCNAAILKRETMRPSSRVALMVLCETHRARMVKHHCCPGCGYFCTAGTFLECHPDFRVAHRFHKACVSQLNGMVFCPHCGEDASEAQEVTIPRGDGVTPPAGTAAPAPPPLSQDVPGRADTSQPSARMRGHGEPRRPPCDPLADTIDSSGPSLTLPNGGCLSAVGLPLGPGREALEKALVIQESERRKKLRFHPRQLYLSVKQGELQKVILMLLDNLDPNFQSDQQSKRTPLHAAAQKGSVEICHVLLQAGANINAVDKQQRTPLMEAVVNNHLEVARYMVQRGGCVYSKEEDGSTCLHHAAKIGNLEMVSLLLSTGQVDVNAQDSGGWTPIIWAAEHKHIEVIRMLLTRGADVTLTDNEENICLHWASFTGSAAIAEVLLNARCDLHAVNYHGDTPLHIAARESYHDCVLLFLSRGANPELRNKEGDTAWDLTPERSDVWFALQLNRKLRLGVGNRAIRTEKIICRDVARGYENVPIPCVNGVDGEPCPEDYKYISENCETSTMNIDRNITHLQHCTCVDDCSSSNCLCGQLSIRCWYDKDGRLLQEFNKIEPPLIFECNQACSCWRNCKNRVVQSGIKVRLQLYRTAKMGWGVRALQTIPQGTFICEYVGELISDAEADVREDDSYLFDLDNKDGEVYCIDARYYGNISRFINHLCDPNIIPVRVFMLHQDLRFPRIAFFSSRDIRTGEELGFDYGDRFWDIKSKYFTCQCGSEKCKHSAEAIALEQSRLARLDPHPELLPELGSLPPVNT
Briefly: MDA-MB-231 H3K9me2 in-cell Western assay (EHMT2 ICW). Conditions: H3K9me2 in-cell Western, MDA-MB-231 cells; read-out: EHMT2 ICW (IC50 μM). The assay is classed as cell-based. A digest of the protocol:
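MDA-MB-231 cells (3,000/well) were exposed to compound for 30 min at room temperature and then 48 h at 37 °C, fixed with paraformaldehyde, and stained with anti-H3K9me2 (800 nm) plus DRAQ5 (700 nm). Per-well channel ratios gave percent inhibition, and IC50 came from a four-parameter fit of triplicate wells.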

Usually IC50 stands for the concentration that gives 50% inhibition. With `COc1cc(NC2CCCNC2)ccc1OCCCN1CCCC1` (centres unmarked) [Compound 578], the IC50 is more than 10 µM. With `CN1CCC(COc2cnc(NCC3CCOCC3)nc2)C1` (centres unmarked) [Compound 553] the figure was more than 10 µM; with `CCN1CC(COc2cc(Nc3nccc4[nH]ccc34)ncc2OC)C1` [Compound 564], more than 10 µM; with `CNc1ccnc(NC2(C)CCCNC2)n1` (centres unmarked) [Compound 546, N^4-methyl-N^2-(3-methylpiperidin-3-yl)pyrimidine-2,4-diamine], more than 10 µM.

`COc1ccc(Nc2nccc3[nH]ncc23)cc1OCCCN1CCCC1` [Compound 582]: the IC50 is more than 10 µM. With `CNc1ccnc(NC2CCNCC2)n1` [Compound 542, N^4-methyl-N^2-(piperidin-4-yl)pyrimidine-2,4-diamine] the figure was more than 10 µM. The figure for `CCN1CC(COc2cc(Nc3cccc4nncn34)ncc2OC)C1` [Compound 584] is more than 10 µM; for `COc1cnc(Nc2cccn3ccnc23)cc1OCCCN1CCCC1` [Compound 586] it is more than 10 µM; for `CN1CCC(COc2cnc(NC3CCNCC3)nc2)C1` (centres unmarked) [Compound 555] it is more than 10 µM. On to `COc1cnc(Nc2cccc3nccn23)cc1OCCCN1CCCC1` [Compound 585], for which the IC50 is 1 to 10 µM. With `COc1cnc(Nc2ccnc3[nH]ncc23)cc1OCCCN1CCCC1` [Compound 583], the IC50 was more than 10 µM. The figure for `CNc1cc(C)nc(Nc2ccc(OC)c(OCCCN3CC4(CC4)C3)c2)n1` [Compound 574] is more than 10 µM. The figure for `CCc1cc(NC)nc(Nc2cnc(OC)c(OC[C@@H]3CCN(CC)C3)c2)n1` [Compound 601] is 0.1 to 1 µM; for `COc1ccc(NC2CCNCC2)cc1OCCCN1CCCC1` [Compound 572] it is more than 10 µM; for `COc1ncc(Nc2nc(C)cc(NCC3CCOCC3)n2)cc1OC[C@@H]1CCN(C2CCC2)C1` [Compound 595] it is 0.1 to 1 µM.

As to `CNc1cc(C)nc(Nc2ccc(OC)c(OC[C@@H]3CCN(C4CCC4)C3)c2)n1` [Compound 563], the IC50 is less than 0.1 µM.

In the case of `c1nc(NC2CCOCC2)ncc1OCC1CCN(C2CC2)C1` (centres unmarked) [Compound 557], the IC50 was more than 10 µM. Turning to `COc1ncc(Nc2nc(C)cc(NCC3CCOCC3)n2)cc1OC[C@@H]1CCN(C(C)C)C1` [Compound 592], the IC50 lay within 0.1 to 1 µM. With `CCCCN1CCCC(C)(Nc2nccc(NC)n2)C1` (centres unmarked) [Compound 549, N^2-(1-butyl-3-methylpiperidin-3-yl)-N^4-methylpyrimidine-2,4-diamine] the figure was more than 10 µM; with `CNc1cc(C)nc(Nc2ccc(OC)c(OCCCN(C)C3CCC3)c2)n1` [Compound 551, N^2-(3-(3-(cyclobutyl(methyl)amino)propoxy)-4-methoxyphenyl)-N^4,6-dimethylpyrimidine-2,4-diamine], 0.1 to 1 µM.

Take `COc1cnc(Nc2cccc3cncn23)cc1OCCCN1CCCC1` [Compound 589]: the IC50 was more than 10 µM.

As for `CNc1ccnc(Nc2cc(OCCCN3CCCC3)c3cn[nH]c3c2)n1` [Compound 538, N^4-methyl-N^2-(4-(3-(pyrrolidin-1-yl)propoxy)-1H-indazol-6-yl)pyrimidine-2,4-diamine], the IC50 is more than 10 µM.

Take `CNc1cc(C)nc(Nc2ccc(OC)c(OCC3CN(C4CCOC4)C3)c2)n1` (centres unmarked) [Compound 580]: the IC50 is more than 10 µM.

For the compound `CCN1CC[C@@H](COc2cc(Nc3nc(C)cc(NC(C)C)n3)ccc2OC)C1` [Compound 602], the half-inhibitory concentration (IC50) was in the range of 0.1 to 1 µM. The figure for `CC(C)N1CC(COc2cnc(NC3CCNCC3)nc2)C1` [Compound 588] is more than 10 µM; for `CNc1cc(C)nc(Nc2ccc(OC)c(OCC3CN(C(C)C)C3)c2)n1` [Compound 559] it is 0.1 to 1 µM.

As for `c1nc(NC2CCNCC2)ncc1OCC1CCN(C2CC2)C1` (centres unmarked) [Compound 556], the IC50 was more than 10 µM.

As to `CCN1CC(COc2cc(Nc3cc(NC)cc(C)n3)cnc2OC)C1` [Compound 569], the IC50 fell in the range of 0.1 to 1 µM. As for `CN1CCC(COc2ccc(NC3CCNCC3)nc2)C1` (centres unmarked) [Compound 554], the IC50 is more than 10 µM.
